# Laboratory results from US20250064834A1, “COMPOSITIONS AND METHODS FOR TREATMENT AND PREVENTION OF DISEASES UTILIZING TIRILAZAD SALTS” (priority 2022, published 2025).
# Test system: mini-explants from the dermoepidermal junction of the hoof
# Assay: In vitro study of hoof laminar mini-explants pre-incubated with tirilazad, then Bothrops alternatus venom, as a model for laminitis; histopathology (H-E, PAS)
# Type: cell-based
# Procedure: An in vitro study was conducted to analyze the protective effects of tirilazad mesylate on cellular degeneration as a result of Bothrops alternatus snake venom as a model for laminitis. Explant tissue samples were obtained from the dermoepidermal junction of the hoof of the right forelimb under nervous system block without the need for euthanasia.
# Under sterile conditions, laminar cuts (mini-explants) were made of each explant and the tissue washed with physiological solution. The mini-explants were pre-incubated for 5 hours with tirilazad and then for 24 hours with Bothrops venom. Culture medium was as follows: Dulbecco's […] (DMEM, GIBCO-Invitrogen) with 10% heat-inactivated fetal bovine serum (FBS, GIBCO-Invitrogen), L-Glutamine (29.2 mg/mL), Penicillin (10,000 units/mL), and Streptomycin (10,000 μg/mL, GIBCO-Invitrogen) as antibiotics.
# Histopathology: Tissues were processed with classical histological techniques, e.g., cutting by microtome (Minot) and stained with hematoxylin-eosin (H-E) and Periodic Acid Schiff (PAS) stains.
# [1] = Tirilazad 1 μM (5 hours pre-incubation) + venom 75 μg/ml (24 hours), listed as tirilazad
# [2] = Tirilazad 1 μM, no venom, listed as tirilazad
# [3] = Tirilazad 3 μM (5 hours pre-incubation) + venom 75 μg/ml (24 hours)
# [4] = Tirilazad 3 μM, no venom, listed as tirilazad
# [5] = Tirilazad 10 μM (5 hours pre-incubation) + venom 75 μg/ml (24 hours), listed as tirilazad
# [6] = Tirilazad 10 μM, no venom, listed as tirilazad
# [7] = Tirilazad 20 μM (5 hours pre-incubation) + venom 75 μg/ml (24 hours)
smiles,measurement,setting,value
"C[C@@H]1C[C@H]2[C@@H]3CCC4=CC(=O)C=C[C@]4(C)C3=CC[C@]2(C)[C@H]1C(=O)CN1CCN(c2cc(N3CCCC3)nc(N3CCCC3)n2)CC1 [Tirilazad, 16α-methyl-21-[4-[2,6-bis(1-pyrrolidinyl)-4-pyrimidinyl]-1-piperazinyl]pregna-1,4,9(11)-triene-3,20-dione]",Separation of Basement Membrane,Tirilazad 1 μM (5 hours pre-incubation) + venom 75 μg/ml (24 hours),No
same,Cell Nuclei,[1],intense presence of altered epidermal cells
same,Pyknosis or Karyopyknosis,[1],with nuclear pyknosis
same,Separation of Basement Membrane,[1],did not show separation of the basement membrane
same,Pyknosis or Karyopyknosis,"Tirilazad 1 μM, no venom",No
same,Separation of Basement Membrane,"Tirilazad 1 μM, no venom",No
same,Cell Nuclei,[2],epidermal cells were normal and showed preserved cytoplasmic and nuclear structure
same,Separation of Basement Membrane,[2],did not show separation of the basement membrane
same,Cell Nuclei,[3],intense presence of altered epidermal cells
same,Pyknosis or Karyopyknosis,[3],nuclear pyknosis predominating
same,Separation of Basement Membrane,[3],slight separation of the basement membrane
same,Separation of Basement Membrane,"Tirilazad 3 μM, no venom",No
same,Cell Nuclei,[4],slight epidermal cytoplasmic and nuclear alteration
same,Separation of Basement Membrane,[4],did not show separation of the basement membrane
same,Separation of Basement Membrane,Tirilazad 10 μM (5 hours pre-incubation) + venom 75 μg/ml (24 hours),No
same,Cell Nuclei,[5],Moderate presence of altered epidermal cells
same,Pyknosis or Karyopyknosis,[5],moderate nuclear pyknosis
same,Separation of Basement Membrane,[5],did not show separation of the basement membrane
same,Pyknosis or Karyopyknosis,"Tirilazad 10 μM, no venom",No
same,Separation of Basement Membrane,"Tirilazad 10 μM, no venom",No
same,Cell Nuclei,[6],epidermal cells were normal and showed preserved cytoplasmic and nuclear structure
same,Separation of Basement Membrane,[6],did not show separation of the basement membrane
same,Cell Nuclei,[7],intense presence of altered epidermal cells
same,Pyknosis or Karyopyknosis,[7],intense nuclear pyknosis
same,Separation of Basement Membrane,[7],intense separation of the basement membrane
same,Cell Nuclei,"Tirilazad 20 μM, no venom",epidermal cells were normal and showed preserved cytoplasmic and nuclear structure
same,Pyknosis or Karyopyknosis,"Tirilazad 20 μM, no venom",No
same,Separation of Basement Membrane,"Tirilazad 20 μM, no venom",intense separation of the basement membrane
same,effect on cellular structure in hoof tissue,overall conclusion of the explant study,provides a protective and/or therapeutic effect
